The target in assay [1] is purified human Factor XIa (Homo sapiens (Human), UniProt P03951). The assay can be described thus: Factor XIa Assay. Type of assay: biochemical. The conditions noted are these: substrate Z-Gly-Pro-Arg-AFC 100 μM, 40 pM enzyme, pH 7.4; read-out: FXIa IC50. The procedure: The effectiveness of a compound of the present invention as an inhibitor of Coagulation Factor XIa can be determined using a relevant purified serine protease, and an appropriate synthetic substrate. The rate of hydrolysis of the chromogenic or fluorogenic substrate by the relevant serine protease was measured both in the absence and presence of compounds of the present invention. Assays were conducted at room temperature or at 37° C. […] A decrease in the rate of fluorescence change in the presence of inhibitor is indicative of enzyme inhibition. Such methods are known to one skilled in the art. […]
Factor XIa determinations were made in 50 mM HEPES buffer at pH 7.4 containing 150 mM NaCl, 5 mM CaCl2, and 0.1% PEG 8000 (polyethylene glycol; JT Baker or Fisher Scientific). Determinations were made using purified human Factor XIa at a final concentration of 40 pM (Sekisui Diagnostics) and the synthetic substrate, Z-Gly-Pro-Arg-AFC, TFA salt (Sigma #C0980) at a concentration of 100 μM.
Times required to achieve equilibration between enzyme and inhibitor were determined in control experiments. Initial velocities of product formation in the absence (Vo) or presence of inhibitor (Vi) were measured. Assuming competitive inhibition, and that unity is negligible compared Km/[S], [I]/e, and [I]/e (where [S], [I], and e respectively represent the total concentrations, of substrate, inhibitor and enzyme), the equilibrium constant (Ki) for dissociation of the inhibitor from the enzyme can be obtained from the dependence of Vo/Vi on [I] shown in the following equation.

Assay [2] addresses purified Human plasma kallikrein (Homo sapiens (Human), UniProt P03952). The assay can be described thus: Kallikrein Assay. The assay is classed as biochemical. The conditions noted are these: Plasma kallikrein; substrate Acetyl-K-P-R-AFC, 0.5 nM enzyme, pH 7.4; read-out: PK IC50. The protocol:
The effectiveness of a compound of the present invention as an inhibitor of Kallikrein can be determined using a relevant purified serine protease, and an appropriate synthetic substrate. The rate of hydrolysis of the chromogenic or fluorogenic substrate by the relevant serine protease was measured both in the absence and presence of compounds of the present invention. Assays were conducted at room temperature or at 37° C. […] A decrease in the rate of fluorescence change in the presence of inhibitor is indicative of enzyme inhibition. Such methods are known to one skilled in the art. The results of this assay are expressed as the inhibitory constant, Ki.
Kallikrein determinations were made in 50 mM HEPES buffer at pH 7.4 containing 150 mM NaCl, 5 mM CaCl2, and 0.1% PEG 8000 (polyethylene glycol; Fisher Scientific). Determinations were made using purified Human plasma kallikrein at a final concentration of 0.5 nM (Enzyme Research Laboratories) and the synthetic substrate, Acetyl-K-P-R-AFC (Sigma # C6608) at a concentration of […].
Times required to achieve equilibration between enzyme and inhibitor were determined in control experiments. The reactions were performed under linear progress curve conditions and fluorescence increase measured at 405 Ex/510 Em nm. […] IC50 was determined by inflection point from a four parameter logistic curve fit. Ki was calculated using the Cheng Prusoff equation, Ki=IC50/(1+([S]/Km)).

Experimental findings from patent US9975874B2, “Factor XIa inhibitors” (Merck Sharp & Dohme Corp., priority 2014, dated 2018) are described below.

Chain of purified Human plasma kallikrein (P03952 391-638): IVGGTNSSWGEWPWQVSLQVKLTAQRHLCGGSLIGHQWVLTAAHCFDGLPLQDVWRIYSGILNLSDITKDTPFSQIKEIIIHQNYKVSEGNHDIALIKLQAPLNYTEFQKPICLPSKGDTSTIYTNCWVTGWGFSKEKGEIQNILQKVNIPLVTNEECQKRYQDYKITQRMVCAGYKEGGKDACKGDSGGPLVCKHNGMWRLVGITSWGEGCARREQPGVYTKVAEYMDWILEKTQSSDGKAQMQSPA
Chain of purified Human plasma kallikrein (P03952 20-390 partner): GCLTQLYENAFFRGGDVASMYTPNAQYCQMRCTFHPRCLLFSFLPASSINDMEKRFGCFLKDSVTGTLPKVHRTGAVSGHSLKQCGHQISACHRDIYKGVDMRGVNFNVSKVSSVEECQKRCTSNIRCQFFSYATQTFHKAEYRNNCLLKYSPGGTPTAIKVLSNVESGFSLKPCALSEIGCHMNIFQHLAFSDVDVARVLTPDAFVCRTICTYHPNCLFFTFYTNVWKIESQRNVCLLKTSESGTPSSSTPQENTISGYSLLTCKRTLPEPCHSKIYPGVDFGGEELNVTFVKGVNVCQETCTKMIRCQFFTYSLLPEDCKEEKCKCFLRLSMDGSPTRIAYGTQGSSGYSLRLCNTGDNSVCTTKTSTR
Chain of purified human Factor XIa (P03951 388-625): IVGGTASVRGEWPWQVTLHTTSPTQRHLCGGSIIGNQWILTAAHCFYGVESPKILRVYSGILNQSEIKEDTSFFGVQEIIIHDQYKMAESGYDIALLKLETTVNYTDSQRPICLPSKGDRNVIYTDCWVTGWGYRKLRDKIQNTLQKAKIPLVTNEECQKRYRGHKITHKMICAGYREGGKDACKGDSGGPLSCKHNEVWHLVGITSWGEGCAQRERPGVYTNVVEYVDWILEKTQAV
Chain of purified human Factor XIa (P03951 19-387 partner): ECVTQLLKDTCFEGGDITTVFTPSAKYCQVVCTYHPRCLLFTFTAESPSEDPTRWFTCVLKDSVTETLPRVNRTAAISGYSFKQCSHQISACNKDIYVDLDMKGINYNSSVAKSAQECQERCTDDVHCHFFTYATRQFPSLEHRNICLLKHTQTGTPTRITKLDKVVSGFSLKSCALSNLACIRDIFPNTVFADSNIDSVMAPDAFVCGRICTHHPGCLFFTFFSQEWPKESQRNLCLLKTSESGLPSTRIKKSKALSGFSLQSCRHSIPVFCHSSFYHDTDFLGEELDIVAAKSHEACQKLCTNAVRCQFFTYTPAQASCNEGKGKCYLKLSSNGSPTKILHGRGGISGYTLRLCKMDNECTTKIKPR

Regarding `COC(=O)Nc1ccc(-c2cccc(C(Cc3ccccc3)c3ccc(-c4cc(Cl)ccc4-n4cnnn4)c[n+]3[O-])c2)cc1` (racemic) [Example 1, (±)-5-(5-Chloro-2-(1H-tetrazol-1-yl)phenyl)-2-(1-(4′-((methoxycarbonyl)amino)-[1,1′-biphenyl]-3-yl)-2-phenylethyl)pyridine 1-oxide], the IC50 (in general, the concentration needed to halve the response being measured) in assay [1] is 0.634 nM; in assay [2], 24.4 nM.
For `O=C(O)c1cccc(-c2cccc(C(Cc3ccccc3)c3ccc(-c4cc(Cl)ccc4-n4cnnn4)c[n+]3[O-])c2)c1` (racemic) [Example 7, 2-(1-(3′-carboxy-[1,1′-biphenyl]-3-yl)-2-phenylethyl)-5-(5-chloro-2-(1H-tetrazol-1-yl)phenyl)pyridine 1-oxide] the same measures were 0.459 nM and 77.7 nM.
As to `O=C(O)c1ccc(-c2cccc(C(Cc3ccccc3)c3ccc(-c4cc(Cl)ccc4-n4cnnn4)c[n+]3[O-])c2)cc1` (racemic) [Example 10], the IC50 in assay [1] was 19.1 nM; in assay [2], 705 nM.
For `O=C(O)c1cccc(-c2cc(F)cc(C(Cc3ccccc3)c3ccc(-c4cc(Cl)ccc4-n4cnnn4)c[n+]3[O-])c2)c1` (racemic) [Example 13] the same measures were 0.343 nM and 12 nM.
In the case of `O=C(O)c1cccc(-c2cccc(C(CC3CC3)c3ccc(-c4cc(Cl)ccc4-n4cnnn4)c[n+]3[O-])c2)c1` (racemic) [Example 17], the figures for the half-maximal inhibitory concentration (IC50) in assay [1] and in assay [2] were 12 nM and 543 nM, respectively.
For the molecule `[O-][n+]1cc(-c2cc(Cl)ccc2-n2cnnn2)ccc1C(Cc1ccccc1)c1cccc(C2CCNCC2)c1` (racemic) [Example 20, 5-[5-chloro-2-(1H-tetrazol-1-yl)phenyl]-2-[2-phenyl-1-(3-piperidin-4-ylphenyl)ethyl] pyridine 1-oxide], in assay [1], the IC50 is 216 nM.
As for `CNC(=O)N1CCC(c2cccc(C(Cc3ccccc3)c3ccc(-c4cc(Cl)ccc4-n4cnnn4)c[n+]3[O-])c2)CC1` (racemic) [Example 21, 4-[3-(1-{5-[5-chloro-2-(1H-tetrazol-1-yl)phenyl]-1-oxidopyridin-2-yl}-2-phenylethyl)phenyl]-N-methyl piperidine-1-carboxamide], the IC50 in assay [1] came to 10.2 nM; in assay [2] it was 496 nM.
For `CS(=O)(=O)N1CCC(c2cccc(C(Cc3ccccc3)c3ccc(-c4cc(Cl)ccc4-n4cnnn4)c[n+]3[O-])c2)CC1` (racemic) [Example 22, 5-[5-chloro-2-(1H-tetrazol-1-yl)phenyl]-2-(1-{3-[1-(methylsulfonyl)piperidin-4-yl]phenyl}-2-phenylethyl) pyridine 1-oxide] the same measures were 59.4 nM and 1040 nM.
Turning to `COC(=O)N1CCC(c2cccc(C(Cc3ccccc3)c3ccc(-c4cc(Cl)ccc4-n4cnnn4)c[n+]3[O-])c2)CC1` (racemic) [Example 23, methyl 4-[3-(1-{5-[5-chloro-2-(1H-tetrazol-1-yl)phenyl]-1-oxidopyridin-2-yl}-2-phenylethyl)phenyl] piperidine-1-carboxylate], the IC50 in assay [1] was 85.9 nM.
Consider `CCNC(=O)N1CCC(c2cccc(C(Cc3ccccc3)c3ccc(-c4cc(Cl)ccc4-n4cnnn4)c[n+]3[O-])c2)CC1` (racemic) [Example 24, 4-[3-(1-{5-[5-chloro-2-(1H-tetrazol-1-yl)phenyl]-1-oxidopyridin-2-yl}-2-phenylethyl)phenyl]-N-ethylpiperidine-1-carboxamide], for which the IC50 in assay [1] is 19 nM; in assay [2], 714 nM.
As for `O=C(O)c1ccc(-c2cccc(C(Cc3ccccc3)c3ccc(-c4cc(Cl)ccc4-n4cnnn4)c[n+]3[O-])c2)cc1` (single isomer, unassigned) [Example 12], in assay [1], the IC50 was determined as 3500 nM.
On the same count and under the same terms, next, `COC(=O)Nc1ccc(-c2cccc([C@@H](Cc3ccccc3)c3ccc(-c4cc(Cl)ccc4-n4cnnn4)c[n+]3[O-])c2)cc1` [Example 2, (R)-5-(5-Chloro-2-(1H-tetrazol-1-yl)phenyl)-2-(1-(4′-((methoxycarbonyl)amino)-[1,1′-biphenyl]-3-yl)-2-phenylethyl)pyridine 1-oxide]: 424 nM; `CS(=O)(=O)c1ccc(-c2cccc([C@@H](Cc3ccccc3)c3ccc(-c4cc(Cl)ccc4-n4cnnn4)c[n+]3[O-])c2)cc1` [Example 5]: 10000 nM.
Same read-out and setting: next, `O=C(O)c1cccc(-c2cc(F)cc([C@@H](Cc3ccccc3)c3ccc(-c4cc(Cl)ccc4-n4cnnn4)c[n+]3[O-])c2)c1` [Example 15]: 232 nM; `O=C(O)c1cccc(-c2cccc(C(CC3CC3)c3ccc(-c4cc(Cl)ccc4-n4cnnn4)c[n+]3[O-])c2)c1` (centres unmarked) [Example 19]: 1000 nM.
The same measure, in the same setting: as for `CC(C)(C)OC(=O)N1CCC(c2cccc([C@@H](Cc3ccccc3)c3ccc(-c4cc(Cl)ccc4-n4cnnn4)c[n+]3[O-])c2)CC1` [Example 25, tert-butyl 4-{3-[(1R)-1-{5-[5-chloro-2-(1H-tetrazol-1-yl)phenyl]-1-oxidopyridin-2-yl}-2-phenylethyl]phenyl} piperidine-1-carboxylate], the figure is 1000 nM.
As to `CC(C)(C)OC(=O)N1CCC(c2cccc([C@H](Cc3ccccc3)c3ccc(-c4cc(Cl)ccc4-n4cnnn4)c[n+]3[O-])c2)CC1` [Example 26, tert-butyl 4-{3-[(1S)-1-{5-[5-chloro-2-(1H-tetrazol-1-yl)phenyl]-1-oxidopyridin-2-yl}-2-phenylethyl]phenyl} piperidine-1-carboxylate], in assay [1], the IC50 came out at 247 nM.
For `CCNC(=O)N1CCC(c2cccc([C@@H](Cc3ccccc3)c3ccc(-c4cc(Cl)ccc4-n4cnnn4)c[n+]3[O-])c2)CC1` [Example 27, 4-{3-[(1R)-1-{5-[5-chloro-2-(1H-tetrazol-1-yl)phenyl]-1-oxidopyridin-2-yl}-2-phenylethyl]phenyl}-N-ethyl-piperidine-1-carboxamide], in assay [1], the IC50 came to 1000 nM.
`O=C(C(F)F)N1CCC(c2cccc([C@H](Cc3ccccc3)c3ccc(-c4cc(Cl)ccc4-n4cnnn4)c[n+]3[O-])c2)CC1` [Example 37, 5-[5-chloro-2-(1H-tetrazol-1-yl)phenyl]-2-[(1S)-1-{3-[1-(difluoroacetyl)piperidin-4-yl]phenyl}-2-phenylethyl] pyridine 1-oxide]: the concentration for half-maximal inhibition (IC50) in assay [2] turned out to be 536 nM.
On to `CCCOC(=O)N1CCC(c2cccc([C@H](Cc3ccccc3)c3ccc(-c4cc(Cl)ccc4-n4cnnn4)c[n+]3[O-])c2)CC1` [Example 41, propyl 4-{3-[(1S)-1-{5-[5-chloro-2-(1H-tetrazol-1-yl)phenyl]-1-oxidopyridin-2-yl}-2-phenylethyl]phenyl} piperidine-1-carboxylate], for which the IC50 in assay [1] is 131 nM.
Same read-out and setting: as for `CC(C)COC(=O)N1CCC(c2cccc([C@H](Cc3ccccc3)c3ccc(-c4cc(Cl)ccc4-n4cnnn4)c[n+]3[O-])c2)CC1` [Example 42, 2-methylpropyl 4-{3-[(1S)-1-{5-[5-chloro-2-(1H-tetrazol-1-yl)phenyl]-1-oxidopyridin-2-yl}-2-phenylethyl]phenyl} piperidine-1-carboxylate], the figure is 557 nM; as for `O=C(OCCF)N1CCC(c2cccc([C@H](Cc3ccccc3)c3ccc(-c4cc(Cl)ccc4-n4cnnn4)c[n+]3[O-])c2)CC1` [Example 43, 2-fluoroethyl 4-{3-[(1S)-1-{5-[5-chloro-2-(1H-tetrazol-1-yl)phenyl]-1-oxidopyridin-2-yl}-2-phenylethyl]phenyl} piperidine-1-carboxylate], 63.4 nM; as for `O=C(OCC1CC1)N1CCC(c2cccc([C@H](Cc3ccccc3)c3ccc(-c4cc(Cl)ccc4-n4cnnn4)c[n+]3[O-])c2)CC1` [Example 44, cyclopropyl-methyl 4-{3-[1S)-1-{5-[5-chloro-2-(1H-tetrazol-1-yl)phenyl]-1-oxidopyridin-2-yl}-2-phenylethyl] phenyl} piperidine-1-carboxylate], 184 nM.
Same read-out and setting: as for `O=C(OCC(F)(F)F)N1CCC(c2cccc([C@H](Cc3ccccc3)c3ccc(-c4cc(Cl)ccc4-n4cnnn4)c[n+]3[O-])c2)CC1` [Example 46, 2,2,2-trifluoroethyl 4-{3-[(1S)-1-{5-[5-chloro-2-(1H-tetrazol-1-yl)phenyl]-1-oxidopyridin-2-yl}-2-phenylethyl]phenyl} piperidine-1-carboxylate], the figure is 478 nM.
